What was measured:
Test in all cases: relative viability (nuclei count vs DMSO), 5 days (fraction); higher = more cells survive
Ibrutinib + Lapatinib = compound: C=CC(=O)N1CCC[C@@H](n2nc(-c3ccc(Oc4ccccc4)cc3)c3c(N)ncnc32)C1 [Ibrutinib] + CS(=O)(=O)CCNCc1ccc(-c2ccc3ncnc(Nc4ccc(OCc5cccc(F)c5)c(Cl)c4)c3c2)o1 [Lapatinib] (partner 2 µM)
How it was run: (§1)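 Relative viability is defined as nuclei in treated wells over nuclei in vehicle wells. Duplicate plates were run and medians reported. Lung cancer cell lines in 1536-well plates were dosed by pin tool one day after seeding, with one drug or with a fixed anchor-drug dose plus five library-drug doses (not always all listed) in √10 steps, and nuclei were counted after 5 days.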

PAC-1 + Dasatinib = compound: C=CCc1cccc(/C=N/NC(=O)CN2CCN(Cc3ccccc3)CC2)c1O [PAC-1] + Cc1nc(Nc2ncc(C(=O)Nc3c(C)cccc3Cl)s2)cc(N2CCN(CCO)CC2)n1 [Dasatinib] (partner 0.075 µM)
How it was run: as §1

BMX-IN-1 + Vorinostat = compound: C=CC(=O)Nc1cc(-n2c(=O)ccc3cnc4ccc(-c5ccc(NS(C)(=O)=O)cc5)cc4c32)ccc1C [BMX-IN-1] + O=C(CCCCCCC(=O)Nc1ccccc1)NO [Vorinostat] (partner 1 µM)
How it was run: as §1

PAC-1 + Linsitinib = compound: C=CCc1cccc(/C=N/NC(=O)CN2CCN(Cc3ccccc3)CC2)c1O [PAC-1] + C[C@]1(O)C[C@@H](c2nc(-c3ccc4ccc(-c5ccccc5)nc4c3)c3c(N)nccn32)C1 [Linsitinib] (partner 1 µM)
How it was run: as §1

Cell Line	relative viability (Ibrutinib + Lapatinib; first compound 0.005 µM)	relative viability (Ibrutinib + Lapatinib; first compound 0.01581 µM)	relative viability (Ibrutinib + Lapatinib; first compound 0.05 µM)	relative viability (Ibrutinib + Lapatinib; first compound 0.1581 µM)	relative viability (Ibrutinib + Lapatinib; first compound 0.5 µM)	relative viability (PAC-1 + Dasatinib; first compound 0.02 µM)	relative viability (PAC-1 + Dasatinib; first compound 0.06325 µM)	relative viability (PAC-1 + Dasatinib; first compound 0.2 µM)	relative viability (PAC-1 + Dasatinib; first compound 2 µM)	relative viability (BMX-IN-1 + Vorinostat; first compound 0.02 µM)	relative viability (BMX-IN-1 + Vorinostat; first compound 0.2 µM)	relative viability (BMX-IN-1 + Vorinostat; first compound 0.6325 µM)	relative viability (BMX-IN-1 + Vorinostat; first compound 2 µM)	relative viability (PAC-1 + Linsitinib; first compound 0.02 µM)	relative viability (PAC-1 + Linsitinib; first compound 0.06325 µM)	relative viability (PAC-1 + Linsitinib; first compound 0.2 µM)	relative viability (PAC-1 + Linsitinib; first compound 2 µM)
201T	1.04	0.983	1.08	0.968	1.02	0.571	0.595	0.589	0.58	1.2	1	1.05	1.05	1.08	0.991	1.02	1
PC-14	0.308	0.302	0.285	0.322	0.327	0.248	0.265	0.279	0.249	0.863	0.86	1.01	0.0519	0.967	1.03	0.91	0.925
RERF-LC-KJ	0.831	0.931	0.937	0.888	0.785	0.826	0.812	0.775	0.786	0.77	0.734	0.824	0.45	0.904	0.818	0.861	0.887
HCC-15	1.01	0.819	0.877	0.835	0.865	0.631	0.675	0.606	0.619	0.833	0.93	0.86	0.869	0.967	0.876	0.795	0.935
NCI-H1755		0.991	1.08	0.981	1.05	0.426	0.446	0.384	0.443	0.72	0.849	0.812	0.8	1.01	1	0.94	0.982
HOP-62	1.04	0.922	1.08	1.13	1.12	0.665	0.68	0.623	0.641	0.742	0.755	0.613	0.559	1.01	0.927	0.977	0.939
ABC-1	1.14	1.19	1.29	1.19	1.26	0.501	0.495	0.541	0.484	1.34	1.6	1.39	1.21	0.791	0.746	0.822	1.02
UMC-11	0.545	0.978	1.1	0.87	0.907	0.483	0.484	0.462	0.437	0.343	0.417	0.336	0.332	0.997	1.03	0.996	1.04
BEN		0.791	0.519	0.526	0.551	0.272	0.366	0.318	0.327	0.621	0.517	0.585	0.535	0.934	0.91	0.918	0.873
NCI-H520	0.788	0.789	0.934	0.907	0.78	0.172	0.213	0.19	0.225	0.8	0.718	0.666	0.696	0.944	0.92	1	0.861
SK-LU-1	0.88	0.76	0.838	0.937	0.905	0.208	0.173	0.185	0.181	0.719	0.969	0.797	0.69	1.17	1.06	1.04	0.716
NCI-H2087	1.09	1.17	0.986	1.03	1.11	0.915	0.848	0.798	0.78	0.66	1.12	0.837	0.575	1.18	0.931	0.899	0.875
COR-L 105	0.36	0.402	0.368	0.314	0.337	0.361	0.365	0.34	0.412	0.943	0.886	0.996	0.716	0.962	0.852	0.868	1.13
NCI-H1395	1.1	1.04	1.04	0.869	1.05	0.403	0.476	0.387	0.422	0.764	0.708	0.942	0.746	1.02	1.15	0.842	0.958
EKVX	0.178	0.215	0.216	0.191	0.179	0.587	0.606	0.569	0.515	0.668	0.653	0.957	0.698	1.03	1.02	0.941	0.917
NCI-H23	0.943	1.19	1.18	1.15		0.734	0.887	0.826	0.948	0.654	0.728	0.602	0.564	0.534	0.574	0.564	0.505
NCI-H3122	0.953	1.03	1.04	0.948	0.99	0.828	0.811	0.857	0.764	0.938	1.1	0.902	1.14	1.03	1.01	0.992	1.03

Reference: the supplement of paper PMC10307832
